Assay results: PubChem BioAssay AID1195 (EPA DSSTox, 2008)

System: human maximum recommended daily dose, FDA database
Experiment: DSSTox (FDAMDD) FDA Maximum (Recommended) Daily Dose Database
Conditions: stronger effect = lower value
Procedure, shortened: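 MRDD values come from clinical trials with daily oral dosing, usually for 3–12 months, for the average adult, in mg/day converted to mg/kg-bw/day assuming 60 kg. Antineoplastic mg/m2 doses are divided by 37. Activity score maps log10(1/MRDD mmol) onto 1–100.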

[1] = TherapeuticCategory: cardiotonic
[2] = TherapeuticCategory: anti inflammatory
[3] = TherapeuticCategory: glucocorticoid
[4] = TherapeuticCategory: antineoplastic
[5] = TherapeuticCategory: antibacterial
[6] = TherapeuticCategory: analgesic, anti inflammatory
[7] = TherapeuticCategory: sedative, hypnotic
[8] = TherapeuticCategory: diagnostic aid
[9] = TherapeuticCategory: antiarrhythmic
[10] = TherapeuticCategory: antihypertensive
[11] = TherapeuticCategory: antipsychotic
[12] = TherapeuticCategory: antidepressant
[13] = TherapeuticCategory: anticholinergic

## Nc1cc(-c2ccncc2)c[nH]c1=O
[1]
  maximum recommended daily dose (mmol/kg-bw/day): 0.00401

## CC1=C(CC(=O)O)c2cc(F)ccc2/C1=C/c1ccc(S(C)=O)cc1 (configuration not stated)
[2]
  maximum recommended daily dose (mmol/kg-bw/day): 0.0187

## Nc1nc(N)c2nc(CNc3ccc(C(=O)NC(CCC(=O)O)C(=O)O)cc3)cnc2n1 (configuration not stated)
TherapeuticCategory: rodenticide
  maximum recommended daily dose (mmol/kg-bw/day): 1.89e-05

## C[C@]12C=CC(=O)C=C1C(Cl)=C[C@@H]1[C@@H]2[C@@H](O)C[C@@]2(C)[C@H]1CC[C@]2(O)C(=O)CO
[3]
  maximum recommended daily dose (mmol/kg-bw/day): 0.000529

## CCCCC1C(=O)NN(c2ccccc2)C1=O (configuration not stated)
[2]
  maximum recommended daily dose (mmol/kg-bw/day): 0.0215

## CN1C(=O)CN=C(c2ccccc2F)c2cc([N+](=O)[O-])ccc21
TherapeuticCategory: hypnotic
  maximum recommended daily dose (mmol/kg-bw/day): 0.000106

## Cn1c(=O)c2c(ncn2CCOC(=O)C(C)(C)Oc2ccc(Cl)cc2)n(C)c1=O
TherapeuticCategory: bronchodilator
  maximum recommended daily dose (mmol/kg-bw/day): 0.0297

## CC[C@@]1(O)C[C@H](O[C@H]2C[C@H](N(C)C)[C@H](O[C@H]3C[C@H](O)[C@H](O[C@H]4CCC(=O)[C@H](C)O4)[C@H](C)O3)[C@H](C)O2)c2c(cc3c(c2O)C(=O)c2c(O)cccc2C3=O)[C@H]1C(=O)OC
[4]
  maximum recommended daily dose (mmol/kg-bw/day): 0.00333

## CC(O)(P(=O)(O)O)P(=O)(O)O
TherapeuticCategory: calcium regulator
  maximum recommended daily dose (mmol/kg-bw/day): 0.0971

## COc1cc(NC(C)CCCN)c2ncccc2c1 (configuration not stated)
TherapeuticCategory: antimalarial
  maximum recommended daily dose (mmol/kg-bw/day): 0.00289

## CO[C@H]1C[C@H](O[C@H]2[C@H](C)[C@@H](O[C@@H]3O[C@H](C)C[C@H](N(C)C)[C@H]3OC(C)=O)[C@@H](C)C[C@]3(CO3)C(=O)[C@H](C)[C@@H](OC(C)=O)[C@@H](C)[C@@H](C)OC(=O)[C@@H]2C)O[C@@H](C)[C@@H]1OC(C)=O
[5]
  maximum recommended daily dose (mmol/kg-bw/day): 0.0409

## CS(=O)(=O)c1ccc(C2=C(c3ccccc3)C(=O)OC2)cc1
[6]
  maximum recommended daily dose (mmol/kg-bw/day): 0.00265

## O=c1oc2ccccc2c(O)c1Cc1c(O)c2ccccc2oc1=O
TherapeuticCategory: anticoagulant
  maximum recommended daily dose (mmol/kg-bw/day): 0.0149

## CCN(CC)CCNC(=O)c1cc(S(C)(=O)=O)ccc1OC
TherapeuticCategory: antidyskinetic
  maximum recommended daily dose (mmol/kg-bw/day): 0.0203

## C[C@](N)(Cc1ccc(O)cc1)C(=O)O
TherapeuticCategory: tyrosine hydroxylase inhibitor
  maximum recommended daily dose (mmol/kg-bw/day): 0.342

## CC(=O)Oc1cc(C(C)C)c(OCCN(C)C)cc1C
TherapeuticCategory: vasodilator
  maximum recommended daily dose (mmol/kg-bw/day): 0.0191

## C1CNCCN1
TherapeuticCategory: anthelmintic
  maximum recommended daily dose (mmol/kg-bw/day): 0.774

## CCC[N+]12[C@@H]3C[C@]45c6ccccc6N(C)[C@H]4[C@H]1C[C@H](C3[C@@H]5O)[C@H](CC)[C@H]2O (some centres not stated)
TherapeuticCategory: antiarryhthmic
  maximum recommended daily dose (mmol/kg-bw/day): 0.0036

## CC(CC(C)(C)O)OC(O)C(Cl)(Cl)Cl (configuration not stated)
TherapeuticCategory: hypnotic
  maximum recommended daily dose (mmol/kg-bw/day): 0.101

## OC[C@H]1OC(O)[C@H](O)[C@@H](O)[C@H]1O (some centres not stated)
TherapeuticCategory: diagnostic aid, hepatic function
  maximum recommended daily dose (mmol/kg-bw/day): 0.555

## C=CCC1(CC(C)C)C(=O)NC(=O)NC1=O
[7]
  maximum recommended daily dose (mmol/kg-bw/day): 0.0223

## COc1ccc2[nH]cc(CCNC(C)=O)c2c1
TherapeuticCategory: antioxidant
  maximum recommended daily dose (mmol/kg-bw/day): 0.000359

## C[C@H](O)C(=O)Nc1c(I)c(C(=O)NC(CO)CO)c(I)c(C(=O)NC(CO)CO)c1I
[8]
  maximum recommended daily dose (mmol/kg-bw/day): 0.129

## O=C(Oc1ccccc1C(=O)O)c1ccccc1O
[6]
  maximum recommended daily dose (mmol/kg-bw/day): 0.258

## c1ccc(C2(c3ccccc3)CC2C2=NCCN2)cc1 (configuration not stated)
[9]
  maximum recommended daily dose (mmol/kg-bw/day): 0.0248

## O=P1(N(CCCl)CCCl)NCCCO1 (configuration not stated)
[4]
  maximum recommended daily dose (mmol/kg-bw/day): 0.0192

## CN(C)c1nc(N(C)C)nc(N(C)C)n1
[4]
  maximum recommended daily dose (mmol/kg-bw/day): 0.0257

## CN(C)[C@@H]1C(=O)C(C(N)=O)=C(O)[C@@]2(O)C(=O)C3=C(O)c4c(O)cccc4[C@@](C)(O)[C@H]3C[C@@H]12
TherapeuticCategory: antiamebic, antibacterial, antirickettsial
  maximum recommended daily dose (mmol/kg-bw/day): 0.0749

## Cn1cnc([N+](=O)[O-])c1Sc1ncnc2nc[nH]c12
TherapeuticCategory: immunosuppressant, antirheumatic
  maximum recommended daily dose (mmol/kg-bw/day): 0.018

## N=c1ccn2c(n1)O[C@H]1[C@H](O)[C@@H](CO)O[C@H]12
[4]
  maximum recommended daily dose (mmol/kg-bw/day): 0.0888

## CC(C)n1c(/C=C/[C@@H](O)C[C@@H](O)CC(=O)O)c(-c2ccc(F)cc2)c2ccccc21
TherapeuticCategory: antihyperlipoproteinemic
  maximum recommended daily dose (mmol/kg-bw/day): 0.00162

## O=c1[nH]c(=O)n(C2CCCO2)cc1F (configuration not stated) (tested in a mixture with another compound)
[4]
  maximum recommended daily dose (mmol/kg-bw/day): 0.0641

## CCCCc1nc(Cl)c(CO)n1Cc1ccc(-c2ccccc2-c2nn[nH]n2)cc1
[10]
  maximum recommended daily dose (mmol/kg-bw/day): 0.00395

## Cc1cc(C)nc(NS(=O)(=O)c2ccc(N)cc2)n1
[5]
  maximum recommended daily dose (mmol/kg-bw/day): 0.18

## CC1CCN(CCCC(=O)c2ccc(F)cc2)CC1
TherapeuticCategory: neuroleptic
  maximum recommended daily dose (mmol/kg-bw/day): 0.0253

## CCOC(=O)Oc1c(OC)cc(C(=O)O[C@@H]2C[C@@H]3CN4CCc5c([nH]c6cc(OC)ccc56)[C@H]4C[C@@H]3[C@H](C(=O)OC)[C@H]2OC)cc1OC
[10]
  maximum recommended daily dose (mmol/kg-bw/day): 7.5e-05

## CCc1c(C)[nH]c2c1C(=O)C(CN1CCOCC1)CC2 (configuration not stated)
[11]
  maximum recommended daily dose (mmol/kg-bw/day): 0.0136

## CNC[C@H](O)c1ccc(O)c(O)c1
TherapeuticCategory: adrenergic, bronchodilator, mydriatic, antiglaucoma
  maximum recommended daily dose (mmol/kg-bw/day): 9.12e-05

## C[C@H]1C[C@H]2[C@@H]3CCC4=CC(=O)C=C[C@]4(C)[C@H]3C(=O)C[C@]2(C)[C@@]1(O)C(=O)CO
[3]
  maximum recommended daily dose (mmol/kg-bw/day): 0.00215

## OC[C@H]1O[C@@H](O[C@H]2[C@H](O)[C@@H](O)[C@H](O)O[C@@H]2CO)[C@H](O)[C@@H](O)[C@H]1O
TherapeuticCategory: none
  maximum recommended daily dose (mmol/kg-bw/day): 0.292

## CN[C@@H]1[C@H](O)[C@H](NC)[C@H]2O[C@@]3(O)C(=O)C[C@@H](C)O[C@H]3O[C@@H]2[C@H]1O
[5]
  maximum recommended daily dose (mmol/kg-bw/day): 0.201

## CC1=C(/C=C/C(C)=C/C=C/C(C)=C/C=C/C=C(C)/C=C/C=C(C)/C=C/C2=C(C)CCCC2(C)C)C(C)(C)CCC1
TherapeuticCategory: vitamin A precursor, UV screen
  maximum recommended daily dose (mmol/kg-bw/day): 9.31e-05

## C#CCN1C(=O)CN=C(c2ccccc2)c2cc(Cl)ccc21
TherapeuticCategory: anxiolytic
  maximum recommended daily dose (mmol/kg-bw/day): 0.00108

## CC1(C)C(\C=C/C=C\C=C/C=C2/N(CCCCS(=O)(=O)O)c3ccc4ccccc4c3C2(C)C)=[N+](CCCCS(=O)(=O)[O-])c2ccc3ccccc3c21
[8]
  maximum recommended daily dose (mmol/kg-bw/day): 0.000645

## CN1CCN2c3ccccc3Cc3ccccc3C2C1 (configuration not stated)
[12]
  maximum recommended daily dose (mmol/kg-bw/day): 0.00567

## Cc1cc2c(s1)Nc1ccccc1N=C2N1CCN(C)CC1
[11]
  maximum recommended daily dose (mmol/kg-bw/day): 0.0008

## CC(c1cc2ccccc2s1)N(O)C(N)=O (configuration not stated)
TherapeuticCategory: antiasthmatic, anti inflammatry
  maximum recommended daily dose (mmol/kg-bw/day): 0.169

## Cc1ccccc1-n1c(CF)nc2ccc(N)cc2c1=O
TherapeuticCategory: skeletal muscle relaxant
  maximum recommended daily dose (mmol/kg-bw/day): 0.00353

## CN(C)CCO
[12]
  maximum recommended daily dose (mmol/kg-bw/day): 0.168

## C=CCN(C1=NCCN1)c1c(Cl)cccc1Cl
[9]
  maximum recommended daily dose (mmol/kg-bw/day): 0.00492

## CC[N+]1(C)CCCC(OC(=O)C(O)(c2ccccc2)c2ccccc2)C1 (configuration not stated)
[13]
  maximum recommended daily dose (mmol/kg-bw/day): 0.000576

## C=CCC1(C(C)C)C(=O)NC(=O)NC1=O
[7]
  maximum recommended daily dose (mmol/kg-bw/day): 0.0127

## CC[N+](CC)(CC)CCC(O)(c1ccccc1)C1CCCCC1 (configuration not stated)
[13]
  maximum recommended daily dose (mmol/kg-bw/day): 0.00941

## COc1ccc2c(c1OC)C(=O)O[C@@H]2[C@H]1c2c(cc3c(c2OC)OCO3)CCN1C
TherapeuticCategory: antitussive
  maximum recommended daily dose (mmol/kg-bw/day): 0.00605

## CC(=O)Nc1ccc(/C=N/NC(N)=S)cc1
[5]
  maximum recommended daily dose (mmol/kg-bw/day): 0.0106

## Nc1nc(F)nc2c1ncn2[C@@H]1O[C@H](COP(=O)(O)O)[C@@H](O)[C@@H]1O
[4]
  maximum recommended daily dose (mmol/kg-bw/day): 0.00185

## CC(=O)O[C@H]1C[C@H](O[C@H]2[C@@H](O)C[C@H](O[C@H]3[C@@H](O)C[C@H](O[C@H]4CC[C@@]5(C)[C@H](CC[C@@H]6[C@@H]5CC[C@]5(C)[C@@H](C7=CC(=O)OC7)CC[C@]65O)C4)O[C@@H]3C)O[C@@H]2C)O[C@H](C)[C@H]1O
[1]
  maximum recommended daily dose (mmol/kg-bw/day): 4.13e-06

## CC(CN1c2ccccc2Sc2ccccc21)N(C)C (configuration not stated)
TherapeuticCategory: antihistaminic
  maximum recommended daily dose (mmol/kg-bw/day): 0.00587

## C[C@]12CC[C@H](O)CC1=CC[C@@H]1[C@@H]2CC[C@]2(C)C(=O)CC[C@@H]12
TherapeuticCategory: androgen
  maximum recommended daily dose (mmol/kg-bw/day): 0.0115

## NC(=O)N1c2ccccc2C=Cc2ccccc21
TherapeuticCategory: analgesic, anticonvulsant
  maximum recommended daily dose (mmol/kg-bw/day): 0.113

## CCCC[N+]1(C)[C@@H]2CC(OC(=O)[C@H](CO)c3ccccc3)C[C@H]1[C@@H]1O[C@@H]12 (some centres not stated)
TherapeuticCategory: antispasmotic
  maximum recommended daily dose (mmol/kg-bw/day): 0.00302

## CC[C@@H](CO)NCCN[C@@H](CC)CO
[5]
  maximum recommended daily dose (mmol/kg-bw/day): 0.122
